Data: US20250222008A1, “EYEDROPS CONTAINING AN ALPHA1-BLOCKER FOR INHIBITING MYOPIA PROGRESSION” (TSUBOTA LABORATORY, INC., priority 2022, published 2025)
Where a name gives a salt, the structure may show the parent alone.

What was measured:
[1] = tested on: mouse myopic models (−30D lens on right eye, 0D lens on left eye); test: Refractive power measurement in lens-induced myopia mice (infrared photorefractor); assay type: in vivo, mice (C57BL6/J)
Experimental: (§1) During the myopia induction period, eyedrops were administered once per day. Phosphate buffered saline (PBS) eyedrops were classified as a control group (Control), and α1-blocker eyedrops were classified as test groups.
(§2) The refractive index and the axial length of the mouse eyeball after three weeks were measured and the amounts of change were calculated. The refractive values were measured by using an infrared photorefractor for mice (fabricated by Prof Schaeffel of University of Tubingen). The more negative the refractive index, the more severe the myopia. The axial lengths were measured by using spectral domain optical coherence tomography (Envisu R4310, manufactured by Leica). The greater the value of the axial length, the greater the severity of myopia.
(§3) The eyedrops were administered once per day for the three weeks of the myopia induction period.
(§4) α1-blocker eyedrops having concentrations (mg of α1-blocker salt contained in 1 mL: mg/mL) of 0.001 (mg/mL), 0.01 (mg/mL), and 0.1 (mg/mL) were used as the eyedrops. The eyedrops were administered once per day for the three weeks of the myopia induction period. The control group was used with PBS eyedrops not containing an α1-blocker, and the α1-blocker eyedrops were eyedrops obtained by containing bunazosin hydrochloride at the predetermined concentrations.
(§5) The PBS (control group), bunazosin eyedrops (bunazosin of 0.01%, bunazosin hydrochloride of 0.01 mg/mL), silodosin eyedrops (silodosin of 0.01%, silodosin of 0.01 mg/mL), and tamsulosin eyedrops (tamsulosin of 0.01%, tamsulosin hydrochloride of 0.01 mg/mL) were used as the eyedrops. The eyedrops were administered once per day for the three weeks of the myopia induction period, as in Experiments 1 and 2. For the control group as well, PBS eyedrops not containing an α1-blocker were used, as in Experiments 1 and 2.

[2] = tested on: mouse myopic models (−30D lens on right eye, 0D lens on left eye); test: Axial length measurement in lens-induced myopia mice (spectral domain optical coherence tomography); assay type: in vivo, mice (C57BL6/J); conditions: for myopia progression judged by axial length difference −30D vs 0D eyes: eyedrops 0.1 mg/mL once per day; for axial myopia progression judged by axial length difference −30D vs 0D eyes: Experiment 3, eyedrops 0.01% (0.01 mg/mL) once per day
Experimental: as §1, §2, §3, §4, §5

[3] = cited from earlier work
[4] = Experiment 1, eyedrops 0.1 mg/mL once per day for three weeks of myopia induction, amount of change
[5] = Experiment 1, eyedrops 0.1 mg/mL once per day for three weeks, amount of change
[6] = Experiment 1, eyedrops 0.1 mg/mL once per day, three weeks
[7] = Experiment 2, concentration 0.001 mg/mL
[8] = Experiment 2, concentration 0.001 mg/mL, once per day, three weeks
[9] = Experiment 2, concentration 0.01 mg/mL
[10] = Experiment 2, concentration 0.01 mg/mL, once per day, three weeks
[11] = Experiment 2, concentration 0.1 mg/mL
[12] = Experiment 2, concentration 0.1 mg/mL, once per day, three weeks
[13] = Experiment 3, eyedrops 0.01% (0.01 mg/mL) once per day, three weeks

Compound	refractive power, eyes with the −30D lens [1, 4] [D]	refractive power, eyes with the 0D lens [1, 5] [D]	myopia progression judged by refractive power difference −30D vs 0D eyes [1, 6]	myopia progression judged by refractive power difference −30D vs 0D eyes [1, 13]	axial length, eyes with the 0D lens [2, 5] [mm]	axial length, eyes with the −30D lens [2, 5] [mm]	myopia progression judged by axial length difference −30D vs 0D eyes ([2]; Experiment 1, three weeks)	axial myopia progression judged by axial length difference −30D vs 0D eyes ([2]; three weeks)	solubility with respect to water [3]	other results
CCCC(=O)N1CCCN(c2nc(N)c3cc(OC)c(OC)cc3n2)CC1 [bunazosin]	−0.74±4.07	3.65±4.72	progression of myopia was suppressed	progression of myopia was suppressed	0.187±0.019	0.191±0.026	progression of myopia was suppressed	progression of axial myopia was suppressed	–	myopia progression judged by refractive power [1, 7]: a sufficient myopia progression suppressing effect was not obtained; refractive power, eyes with the 0D lens [1, 8]: −0.33±3.47 D; refractive power, eyes with the −30D lens [1, 8]: −10.90±4.13 D; myopia progression judged by refractive power [1, 9]: progression of myopia was suppressed; refractive power, eyes with the 0D lens [1, 10]: −0.83±3.20 D; refractive power, eyes with the −30D lens [1, 10]: −6.92±4.08 D; myopia progression judged by refractive power [1, 11]: progression of myopia was suppressed; refractive power, eyes with the 0D lens [1, 12]: 3.19±3.76 D; refractive power, eyes with the −30D lens [1, 12]: −1.26±3.28 D; myopia progression judged by axial length [2, 7]: showed an elongation in axial length; axial length, eyes with the 0D lens [2, 8]: 0.196±0.008 mm; axial length, eyes with the −30D lens [2, 8]: 0.228±0.017 mm; myopia progression judged by axial length [2, 9]: progression of myopia was suppressed; axial length, eyes with the 0D lens [2, 10]: 0.192±0.021 mm; axial length, eyes with the −30D lens [2, 10]: 0.209±0.024 mm; myopia progression judged by axial length [2, 11]: progression of myopia was suppressed; axial length, eyes with the 0D lens [2, 12]: 0.180±0.028 mm; axial length, eyes with the −30D lens [2, 12]: 0.189±0.024 mm
COc1cc2nc(N3CCN(C(=O)C4COc5ccccc5O4)CC3)nc(N)c2cc1OC (stereo not drawn) [doxazosin hydrochloride]	–	–	–	–	–	–	–	–	approximately 5 mg/mL	–
COc1cc2nc(N3CCN(C(=O)c4ccco4)CC3)nc(N)c2cc1OC [prazosin]	–	–	–	–	–	–	–	–	1.4 mg/mL	–
C[C@H](Cc1cc2c(c(C(N)=O)c1)N(CCCO)CC2)NCCOc1ccccc1OCC(F)(F)F [silodosin]	–	–	–	progression of myopia was suppressed	–	–	–	progression of axial myopia was suppressed	–	–
CCOc1ccccc1OCCN[C@H](C)Cc1ccc(OC)c(S(N)(=O)=O)c1 [tamsulosin]	–	–	–	progression of myopia was suppressed	–	–	–	progression of axial myopia was suppressed	–	–
COc1ccccc1N1CCN(CCCNc2cc(=O)n(C)c(=O)n2C)CC1 [urapidil]	−5.51±6.29	0.33±7.07	progression of myopia was suppressed	–	0.217±0.014	0.233±0.020	progression of myopia was suppressed	–	25 mg/mL	–
